Columns and labels:
Test in all cases: post-emergent herbicidal activity, greenhouse
Format in all cases: in vivo
Yellow Nutsedge = settings: Table I, 4 WAT, 11.2 kg/h
In short: (§1)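 Seeds or propagules sown in compacted top soil, grown 2–3 weeks in greenhouse, then sprayed with compound solution/suspension containing ~0.4% emulsifier at tabulated rates. Injury scored visually versus untreated controls at ~2 and 4 weeks after treatment, expressed as a herbicidal activity index.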

Smartweed = test system: Smartweed
In short: as §1

Cocklebur = test system: Cocklebur
In short: as §1

Rice = settings: Table II
In short: as §1

Canada Thistle = settings: Table I, 4 WAT
In short: as §1

Downy Brome = test system: Downy Brome
In short: as §1

Sorghum = settings: Table II
In short: as §1

Hemp Sesbania = settings: Table II, 4 WAT
In short: as §1

Crabgrass = settings: Table II
In short: as §1

Soybean = settings: Table II
In short: as §1

Johnsongrass = settings: Table I, 4 WAT
In short: as §1

Lambsquarters = test system: Lambsquarters
In short: as §1

Barnyardgrass = test system: Barnyardgrass
In short: as §1

Wild Buckwheat = settings: Table II
In short: as §1

Wheat = settings: Table II
In short: as §1

Sugar Beet = settings: Table II
In short: as §1

Morningglory = test system: Morningglory
In short: as §1

Panicum Spp = settings: Table II
In short: as §1

Velvetleaf = test system: Velvetleaf
In short: as §1

Quackgrass = settings: Table I, 4 WAT
In short: as §1

Measured: post-emergent herbicidal activity index

CC(C#N)OP(=O)(O)CNCC(=O)OCCCl (stereo not shown) [Example 7, glycine, N-[[(1-cyanoethoxy)hydroxyphosphinyl]methyl], 2-chloroethyl ester]
2 (50-74% control): Cocklebur; Table II, 4 WAT, 0.28 kg/h | Cocklebur; Table II, 4 WAT, 1.12 kg/h | Canada Thistle; 5.6 kg/h | Canada Thistle; 11.2 kg/h | Downy Brome; Table I, 4 WAT, 5.6 kg/h | Downy Brome; Table I, 4 WAT, 11.2 kg/h | Downy Brome; Table II, 4 WAT, 0.28 kg/h | Downy Brome; Table II, 4 WAT, 1.12 kg/h | Sorghum; 4 WAT, 0.06 kg/h | Sorghum; 4 WAT, 0.28 kg/h | Sorghum; 4 WAT, 1.12 kg/h | Hemp Sesbania; 1.12 kg/h | Crabgrass; 2 WAT, 0.01 kg/h | Soybean; 4 WAT, 1.12 kg/h | Lambsquarters; Table II, 4 WAT, 1.12 kg/h | Lambsquarters; Table II, 4 WAT, 5.6 kg/h | Barnyardgrass; Table I, 4 WAT, 11.2 kg/h | Barnyardgrass; Table II, 4 WAT, 0.06 kg/h | Barnyardgrass; Table II, 4 WAT, 0.28 kg/h | Wild Buckwheat; 4 WAT, 0.28 kg/h | Wild Buckwheat; 4 WAT, 1.12 kg/h | Wild Buckwheat; 4 WAT, 5.6 kg/h | Morningglory; Table I, 4 WAT, 5.6 kg/h | Morningglory; Table I, 4 WAT, 11.2 kg/h | Morningglory; Table II, 4 WAT, 0.06 kg/h | Morningglory; Table II, 4 WAT, 1.12 kg/h | Morningglory; Table II, 4 WAT, 5.6 kg/h | Velvetleaf; Table II, 4 WAT, 0.28 kg/h | Velvetleaf; Table II, 4 WAT, 1.12 kg/h | Quackgrass; 5.6 kg/h
4 (100% control): Smartweed; Table I, 4 WAT, 5.6 kg/h | Smartweed; Table I, 4 WAT, 11.2 kg/h | Smartweed; Table II, 4 WAT, 0.28 kg/h | Smartweed; Table II, 4 WAT, 5.6 kg/h | Cocklebur; Table I, 4 WAT, 5.6 kg/h | Hemp Sesbania; 5.6 kg/h | Lambsquarters; Table I, 4 WAT, 5.6 kg/h | Lambsquarters; Table II, 4 WAT, 0.28 kg/h | Wheat; 4 WAT, 5.6 kg/h | Sugar Beet; 4 WAT, 0.28 kg/h | Sugar Beet; 4 WAT, 5.6 kg/h | Panicum Spp; 4 WAT, 1.12 kg/h
3 (75-99% control): Yellow Nutsedge | Smartweed; Table II, 4 WAT, 1.12 kg/h | Cocklebur; Table I, 4 WAT, 11.2 kg/h | Cocklebur; Table II, 4 WAT, 5.6 kg/h | Rice; 4 WAT, 1.12 kg/h | Rice; 4 WAT, 5.6 kg/h | Downy Brome; Table II, 4 WAT, 5.6 kg/h | Sorghum; 4 WAT, 5.6 kg/h | Hemp Sesbania; 0.28 kg/h | Crabgrass; 4 WAT, 0.06 kg/h | Soybean; 4 WAT, 5.6 kg/h | Lambsquarters; Table I, 4 WAT, 11.2 kg/h | Barnyardgrass; Table I, 4 WAT, 5.6 kg/h | Barnyardgrass; Table II, 4 WAT, 1.12 kg/h | Barnyardgrass; Table II, 4 WAT, 5.6 kg/h | Wheat; 4 WAT, 0.28 kg/h | Wheat; 4 WAT, 1.12 kg/h | Sugar Beet; 4 WAT, 1.12 kg/h | Panicum Spp; 4 WAT, 0.06 kg/h | Panicum Spp; 4 WAT, 0.28 kg/h | Panicum Spp; 4 WAT, 5.6 kg/h | Velvetleaf; Table I, 4 WAT, 5.6 kg/h | Velvetleaf; Table I, 4 WAT, 11.2 kg/h | Velvetleaf; Table II, 4 WAT, 5.6 kg/h
0 (0-24% control): Smartweed; Table II, 2 WAT, 0.01 kg/h | Cocklebur; Table II, 2 WAT, 0.01 kg/h | Cocklebur; Table II, 4 WAT, 0.06 kg/h | Rice; 2 WAT, 0.01 kg/h | Rice; 4 WAT, 0.06 kg/h | Downy Brome; Table II, 2 WAT, 0.01 kg/h | Sorghum; 2 WAT, 0.01 kg/h | Hemp Sesbania; 0.06 kg/h | Soybean; 2 WAT, 0.01 kg/h | Soybean; 4 WAT, 0.06 kg/h | Johnsongrass; 11.2 kg/h | Lambsquarters; Table II, 4 WAT, 0.06 kg/h | Barnyardgrass; Table II, 2 WAT, 0.01 kg/h | Wild Buckwheat; 2 WAT, 0.01 kg/h | Wild Buckwheat; 4 WAT, 0.06 kg/h | Wheat; 2 WAT, 0.01 kg/h | Sugar Beet; 2 WAT, 0.01 kg/h | Sugar Beet; 4 WAT, 0.06 kg/h | Panicum Spp; 2 WAT, 0.01 kg/h | Velvetleaf; Table II, 2 WAT, 0.01 kg/h | Quackgrass; 11.2 kg/h
1 (25-49% control): Smartweed; Table II, 4 WAT, 0.06 kg/h | Rice; 4 WAT, 0.28 kg/h | Downy Brome; Table II, 4 WAT, 0.06 kg/h | Soybean; 4 WAT, 0.28 kg/h | Johnsongrass; 5.6 kg/h | Lambsquarters; Table II, 2 WAT, 0.01 kg/h | Wheat; 4 WAT, 0.06 kg/h | Morningglory; Table II, 2 WAT, 0.01 kg/h | Morningglory; Table II, 4 WAT, 0.28 kg/h | Velvetleaf; Table II, 4 WAT, 0.06 kg/h

Reference: US4442044A, “Process for preparing monoesters and diesters of N-alkyl substituted amino methyl phosphonic acid” (priority 1983, dated 1984)
